Read-outs that look alike come from different tables or passages of the source.
Target: T1, F508delCFTR (Homo sapiens, UniProt P13569, DEL508-508)
T1 construct: expressed in transfected cells; host or cells: CFBE41o- human lung-derived epithelial cells (CFBE4lo-F508delCFTR-HRP), doxycycline-inducible
Assay: Cell Surface Expression-Horse Radish Peroxidase (CSE-HRP) Assay;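 for Maximum % activity (with co-corrector): co-corrector and positive control are both the same reference corrector at 2 µM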;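 for Maximum % activity (without co-corrector): percent of the 2 µM on-plate positive control corrector response above DMSO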
Format: cell-based
Conditions: for Emax / Maximum % activity (with co-corrector): maximum at any tested concentration, normalized to on-plate positive control; for Emax: read-out: Maximum % activity (without co-corrector); for Maximum % activity (with co-corrector): with co-corrector (2 μM)
Procedure: Cell Surface Expression-Horse Radish Peroxidase (CSE-HRP) Assay;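 for Maximum % activity (with co-corrector): co-corrector and positive control are both the same reference corrector at 2 µM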;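 for Maximum % activity (without co-corrector): percent of the 2 µM on-plate positive control corrector response above DMSO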
The development was achieved by expressing the F508delCFTR mutation along with a horseradish peroxidase (HRP) in the fourth exofacial loop, and then measuring the HRP activity using luminescence readout from these cells, CFBE4lo-F508delCFTR-HRP, that were incubated overnight with the test corrector compounds, either without or with the co-corrector. […] The test compounds were then added either without or with a co-corrector at the required concentrations and further incubated for 18-24 hours at 33° C. The highest concentration tested was 20 μM with an 8-point concentration response curve using a 3-fold dilution in both the test compound without or with the co-corrector. Three replicate plates were run to determine one EC50. All plates contained negative controls (dimethyl sulfoxide, DMSO) and positive control (2 μM of 3-[(2R,4R)-4-({[1-(2,2-difluoro-1,3-benzodioxol-5-yl)cyclopropyl]carbonyl}amino)-7-methoxy-3,4-dihydro-2H-chromen-2-yl]benzoic acid) as well as on-plate concentration response of the positive control. […] The raw counts from the experiment were analyzed using Accelrys® Assay Explorer v3.3.
1−[3*SDPositive Control+3*SDNegative Control/Absolute(MeanPositive Control−MeanNegative Control)]
wherein “SD” is standard deviation.
The % activity measured at each of the 8 test concentrations of the test compound added either without or with a co-corrector (2 μM of 3-[(2R,4R)-4-({[1-(2,2-difluoro-1,3-benzodioxol-5-yl)cyclopropyl]carbonyl}amino)-7-methoxy-3,4-dihydro-2H-chromen-2-yl]benzoic acid) was normalized to the on-plate positive control using the following formulae:
% activity(Test compound without co-corrector)=[(test compound without co-corrector response−DMSO response)/(positive control response−DMSO response)]*100
% activity(Test compound with co-corrector)=[(test compound with co-corrector response−DMSO response)/(positive control response−DMSO response)]*100
The maximum % activity achieved for the test compound either without or with a co-corrector at any tested concentration is presented in Table 4 along with the respective EC50's calculated using the following general sigmoidal curve with variable Hill slope equation (described as Model 42 in the Accelrys® Assay Explorer v3.3 software):
General sigmoidal curve with concentration, response, top, bottom, EC50 and Hill slope. This model describes a sigmoidal curve with an adjustable baseline, a. The equation can be used to fit curves where response is either increasing or decreasing with respect to the independent variable, “x”.
“x” is a concentration of drug under test. “y” is the response. “a” is the maximum response, and “d” is the minimum response “c” is the inflection point (EC50) for the curve. That is, “y” is halfway between the lower and upper asymptotes when x=c. “b” is the slope-factor or Hill coefficient. The sign of b is positive when the response increases with increasing dose and is negative when the response decreases with increasing dose (inhibition).

[1] = CSE-HRP, test compound without co-corrector, read-out: EC50 (without co-corrector)
[2] = CSE-HRP, with co-corrector (2 μM of 3-[(2R,4R)-4-({[1-(2,2-difluoro-1,3-benzodioxol-5-yl)cyclopropyl]carbonyl}amino)-7-methoxy-3,4-dihydro-2H-chromen-2-yl]benzoic acid), read-out: EC50 (with co-corrector)

T1 sequence (P13569 with tags, fused parts or gaps DEL508-508): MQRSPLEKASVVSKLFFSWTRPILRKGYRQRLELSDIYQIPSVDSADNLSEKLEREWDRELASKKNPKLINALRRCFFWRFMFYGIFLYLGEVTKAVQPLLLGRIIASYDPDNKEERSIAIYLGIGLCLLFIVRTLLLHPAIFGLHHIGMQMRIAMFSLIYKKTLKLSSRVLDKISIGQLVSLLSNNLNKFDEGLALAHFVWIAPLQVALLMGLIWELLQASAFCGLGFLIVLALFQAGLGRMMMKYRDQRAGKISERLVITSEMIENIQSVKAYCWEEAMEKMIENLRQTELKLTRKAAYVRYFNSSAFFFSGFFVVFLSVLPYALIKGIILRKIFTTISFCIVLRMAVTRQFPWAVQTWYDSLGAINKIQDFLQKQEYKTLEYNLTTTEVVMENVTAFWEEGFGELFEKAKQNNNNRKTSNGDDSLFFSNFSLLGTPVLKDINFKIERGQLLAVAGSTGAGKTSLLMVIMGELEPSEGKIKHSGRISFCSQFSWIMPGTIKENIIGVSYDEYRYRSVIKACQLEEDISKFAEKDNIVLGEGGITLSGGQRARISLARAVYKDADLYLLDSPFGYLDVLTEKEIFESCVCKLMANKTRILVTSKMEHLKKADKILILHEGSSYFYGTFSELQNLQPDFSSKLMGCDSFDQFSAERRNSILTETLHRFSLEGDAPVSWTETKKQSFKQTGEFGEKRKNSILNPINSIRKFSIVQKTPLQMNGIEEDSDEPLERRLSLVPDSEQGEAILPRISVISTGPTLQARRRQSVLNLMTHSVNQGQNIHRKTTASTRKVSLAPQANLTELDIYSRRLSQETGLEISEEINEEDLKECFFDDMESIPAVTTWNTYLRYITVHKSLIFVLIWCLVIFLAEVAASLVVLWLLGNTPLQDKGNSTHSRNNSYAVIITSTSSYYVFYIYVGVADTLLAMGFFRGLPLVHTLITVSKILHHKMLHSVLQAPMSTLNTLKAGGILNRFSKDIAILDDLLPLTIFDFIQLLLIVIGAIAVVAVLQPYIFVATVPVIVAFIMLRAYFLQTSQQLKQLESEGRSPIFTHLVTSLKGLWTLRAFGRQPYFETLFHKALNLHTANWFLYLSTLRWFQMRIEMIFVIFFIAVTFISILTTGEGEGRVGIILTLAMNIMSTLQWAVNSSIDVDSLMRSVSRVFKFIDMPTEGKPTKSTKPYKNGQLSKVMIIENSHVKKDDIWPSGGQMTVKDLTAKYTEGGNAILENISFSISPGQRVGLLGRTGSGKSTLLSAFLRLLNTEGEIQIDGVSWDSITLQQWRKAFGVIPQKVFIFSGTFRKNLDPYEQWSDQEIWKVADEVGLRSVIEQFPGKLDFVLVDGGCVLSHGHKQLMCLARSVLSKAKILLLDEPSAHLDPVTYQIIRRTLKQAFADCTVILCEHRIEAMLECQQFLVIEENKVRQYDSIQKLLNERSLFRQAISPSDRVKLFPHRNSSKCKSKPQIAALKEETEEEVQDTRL

SMILES	Emax (test compound without co-corrector)	EC50 (test compound without co-corrector, read-out: EC50 (without co-corrector))	EC50 (with co-corrector (2 μM of 3-[(2R,4R)-4-({[1-(2,2-difluoro-1,3-benzodioxol-5-yl)cyclopropyl]carbonyl}amino)-7-methoxy-3,4-dihydro-2H-chromen-2-yl]benzoic acid), read-out: EC50 (with co-corrector))	Maximum % activity (with co-corrector)	EC50 [1]	EC50 [2]	Maximum % activity (with co-corrector) (CSE-HRP)	Emax (CSE-HRP, without co-corrector)
COc1ccc(C(C)(C)C)cc1CN[C@H]1[C@H](C(C)(C)C)[C@@H](C(=O)O)N(C(=O)C2CCCCC2)[C@H]1c1cccn(C)c1=O (racemic) [Example III-228, rac-(2S,3S,4S,5S)-3-tert-butyl-4-{[(5-tert-butyl-2-methoxyphenyl)methyl]amino}-1-(cyclohexanecarbonyl)-5-(1-methyl-2-oxo-1,2-dihydropyridin-3-yl)pyrrolidine-2-carboxylic acid]	< 100%	> 10 µM	> 10 µM	+ (<150)	–	–	–	–
COc1ccc(CN[C@@H]2[C@@H](C(C)(C)C)[C@H](C(=O)O)N(C(=O)C3CCCCC3)[C@@H]2c2ccccc2)c(OC)c1Cl (racemic) [II-3]	–	–	–	–	1 to 10 µM	1 to 10 µM	++ (≥150 and <350)	< 100%
CC(C)Oc1ccccc1CN[C@@H]1[C@@H](C(C)(C)C)[C@H](C(=O)O)N(C(=O)C2CCCCC2)[C@@H]1c1ccccc1 (racemic) [II-4]	–	–	–	–	1 to 10 µM	1 to 10 µM	+++ (≥350)	100 to 200%
CC(C)COc1ccccc1CN[C@@H]1[C@@H](C(C)(C)C)[C@H](C(=O)O)N(C(=O)C2CCCCC2)[C@@H]1c1ccccc1 (racemic) [II-5]	–	–	–	–	1 to 10 µM	1 to 10 µM	+++ (≥350)	< 100%
COc1ncccc1CN[C@@H]1[C@@H](C(C)(C)C)[C@H](C(=O)O)N(C(=O)C2CCCCC2)[C@@H]1c1ccccc1 (racemic) [II-6]	–	–	–	–	1 to 10 µM	1 to 10 µM	+++ (≥350)	100 to 200%
COc1c(Cl)cccc1CN[C@@H]1[C@@H](C(C)(C)C)[C@H](C(=O)O)N(C(=O)C2CCCCC2)[C@@H]1c1ccccc1 (racemic) [II-7]	–	–	–	–	1 to 10 µM	1 to 10 µM	+++ (≥350)	< 100%
CC(C)(C)[C@@H]1[C@@H](NCc2cc(Cl)ccc2OC(F)F)[C@@H](c2ccccc2)N(C(=O)C2CCCCC2)[C@H]1C(=O)O (racemic) [II-8]	–	–	–	–	1 to 10 µM	1 to 10 µM	+++ (≥350)	< 100%
CCOc1ccc(Cl)cc1CN[C@@H]1[C@@H](C(C)(C)C)[C@H](C(=O)O)N(C(=O)C2CCCCC2)[C@@H]1c1ccccc1 (racemic) [II-9]	–	–	–	–	1 to 10 µM	1 to 10 µM	+++ (≥350)	< 100%
COc1cccc(Cl)c1CN[C@@H]1[C@@H](C(C)(C)C)[C@H](C(=O)O)N(C(=O)C2CCCCC2)[C@@H]1c1ccccc1 (racemic) [II-10]	–	–	–	–	1 to 10 µM	1 to 10 µM	+++ (≥350)	100 to 200%
COc1ccc(Cl)cc1CN[C@@H]1[C@@H](C2CC2)[C@H](C(=O)O)N(C(=O)C2CCCCC2)[C@@H]1c1ccccc1 (racemic) [II-12]	–	–	–	–	1 to 10 µM	1 to 10 µM	+++ (≥350)	100 to 200%
Cc1cc(C(F)(F)F)cc(N[C@@H]2[C@@H](C(C)(C)C)[C@H](C(=O)O)N(C(=O)OC(C)C)[C@@H]2c2ccccc2)n1 (racemic) [II-13]	–	–	–	–	1 to 10 µM	1 to 10 µM	+++ (≥350)	< 100%
CC(C)(C)[C@@H]1[C@@H](NCc2cc(C(F)(F)F)cnc2Cl)[C@@H](c2ccccc2)N(C(=O)C2CCCCC2)[C@H]1C(=O)O (racemic) [II-15]	–	–	–	–	< 1 µM	< 1 µM	+++ (≥350)	< 100%
COc1ccccc1[C@@H]1[C@H](NCc2cc(C(F)(F)F)cnc2Cl)[C@@H](C(C)(C)C)[C@H](C(=O)O)N1C(=O)C1CCCCC1 (racemic) [II-16]	–	–	–	–	1 to 10 µM	1 to 10 µM	+++ (≥350)	< 100%
COc1ccc(C(F)(F)F)cc1CN[C@@H]1[C@@H](C(C)(C)C)[C@H](C(=O)O)N(C(=O)C2CCCCC2)[C@@H]1c1ccccc1OC (racemic) [II-17]	–	–	–	–	1 to 10 µM	1 to 10 µM	+++ (≥350)	100 to 200%
COc1cccc([C@@H]2[C@H](NCc3cc(Cl)ccc3OC)[C@@H](C(C)(C)C)[C@H](C(=O)O)N2C(=O)C2CCCCC2)n1 (racemic) [II-19]	–	–	–	–	1 to 10 µM	1 to 10 µM	+++ (≥350)	100 to 200%
COc1ccc(C(F)(F)F)cc1CN[C@@H]1[C@@H](C(C)(C)C)[C@H](C(=O)O)N(C(=O)C2CCCCO2)[C@@H]1c1ccccc1N(C)C (mixture of isomers) [II-20]	–	–	–	–	1 to 10 µM	1 to 10 µM	+++ (≥350)	> 200%
COc1ccc(C(F)(F)F)cc1CN[C@@H]1[C@@H](C(C)(C)C)[C@H](C(=O)O)N(C(=O)C2CCCOC2)[C@@H]1c1ccccc1N(C)C (mixture of isomers) [II-21]	–	–	–	–	1 to 10 µM	1 to 10 µM	+++ (≥350)	> 200%
COc1cc(C(F)(F)F)ccc1CN[C@@H]1[C@@H](C(C)(C)C)[C@H](C(=O)O)N(C(=O)C2CCCOC2)[C@@H]1c1ccccc1N(C)C (mixture of isomers) [II-22]	–	–	–	–	1 to 10 µM	1 to 10 µM	+++ (≥350)	100 to 200%
COc1cc(Cl)ccc1CN[C@@H]1[C@@H](C(C)(C)C)[C@H](C(=O)O)N(C(=O)C2CCCOC2)[C@@H]1c1ccccc1N(C)C (mixture of isomers) [II-23]	–	–	–	–	1 to 10 µM	1 to 10 µM	+++ (≥350)	100 to 200%
COc1ccc(C(F)(F)F)cc1CN[C@@H]1[C@@H](C(C)(C)C)[C@H](C(=O)O)N(C(=O)C2CCOC(C)(C)C2)[C@@H]1c1ccccc1N(C)C (mixture of isomers) [II-24]	–	–	–	–	1 to 10 µM	1 to 10 µM	+++ (≥350)	> 200%
COc1ccc(Cl)cc1CN[C@@H]1[C@@H](C(C)(C)C)[C@H](C(=O)O)N(C(=O)C2CCOC(C)(C)C2)[C@@H]1c1ccccc1N(C)C (mixture of isomers) [II-25]	–	–	–	–	1 to 10 µM	1 to 10 µM	+++ (≥350)	> 200%

Reference: patent publication US20180099931A1 (AbbVie S.à.r.l., priority 2016, published 2018)
